Patent US7939091B2, “Biorational repellents obtained from terpenoids for use against arthropods” (Iowa State University Research Foundation, Inc., priority 1999, dated 2011)
Several values for one entry are separate records, joined by “and”; a condition that tells them apart may be missing. Identical values can stand only once.

Tests used:
[1] = system: German cockroach (Blattella germanica); test: Choice test arena repellency bioassay, adult male German cockroach, 300-second test; assay type: in vivo; details: for Mean Treated / Mean Untreated: 300-second test; for % repellency: (untreated − treated/300)*100
Description: Test Procedure. Repellency bioassays were conducted to assess the repellent properties of compositions containing catnip steam distillate (nepetalactone), Z,E-nepetalactone, E,Z-nepetalactone and DEET against cockroaches. Certified acetone and certified hexane were also tested in order to evaluate solvent effects. (DEET was dissolved in acetone, because DEET is insoluble in hexane. The tested compounds were dissolved in hexane because hexane was the solvent used to extract these compounds from the distillate). One Whatman 125-mm round filter paper was cut in half. One side was treated with one (1) ml of the test compound and the other side was treated with one (1) ml of solvent. The papers were allowed to dry in a fume hood for approximately two (2) minutes before being placed in a 150-mm Petri dish arena. The relative position of the treated side (i.e., to the right or left) of the dish was randomized using a random number table. […] The hole was stopped using a small piece of tape to prevent the insect from escaping. One adult male German cockroach (Blattella germanica) was selected from the colony and dropped into the pre-formed hole in the Petri dish lid. […] Ten (10) replications were performed for each test compound. Results. Using mean values and their related Standard Error of the Mean values (SEM), repellency of the selected samples was determined as shown in Table 2. Significance due to concentration was determined using ANOVA. […] Comparisons between test compounds were made using a two-tailed paired t-test (“paired t-test”) which indicates “differences” as is known in the art and shown in Table 4 (as compared with a “one-tailed” test, which indicates “greater or less than”). Testing Procedure. The same procedure described in Example 1 was used.

[2] = system: antennectomized male German cockroaches; test: Choice test arena behavioral assay of antennectomized male cockroaches; assay type: in vivo, Blattella germanica; details: Annectomized male cockroaches; 1600 μg/cm^2
Description: Testing Procedure. Male cockroaches were antennectomized by using a razor blade to remove the antennae as close to the head as possible. The cockroaches were allowed to recover from the procedure for 24 hours before being exposed to the test compounds in the bioassay described in Example 1. Results.

female German cockroach = test: Choice test arena repellency, female German cockroach; assay type: in vivo, Blattella germanica; parameters: key: seconds spent on the side during a 300-second period; details: 10% by volume (1600 μg/cm^2) vs. acetone
Description: One Whatman 125-mm round filter paper was cut in half. One side was treated with one (1) ml of the test compound and the other side was treated with one (1) ml of solvent. The papers were allowed to dry in a fume hood for approximately two (2) minutes before being placed in a 150-mm Petri dish arena. The relative position of the treated side (i.e., to the right or left) of the dish was randomized using a random number table. […] The hole was stopped using a small piece of tape to prevent the insect from escaping. One adult male German cockroach (Blattella germanica) was selected from the colony and dropped into the pre-formed hole in the Petri dish lid. Immediately after introduction of the cockroach, the number of seconds the cockroach spent on the treated or untreated side during a 300-second (five (5) minute) period was recorded with two different (2) stopwatches. Ten (10) replications were performed for each test compound.
Testing methods and materials. In this experiment, female German cockroaches were tested in the same manner described in Example 1 against the steam distillates of catnip and the Osage orange. Testing using the commercial repellent, DEET, was also performed for comparison. It is known that male cockroaches are generally more sensitive to repellents, such as DEET, than female cockroaches.

[3] = system: German cockroach, Blattella germanica; test: Choice-test arena bioassay (contact irritancy), German cockroach, Example 6; assay type: in vivo; details: 300-second period
Description: (§1) A choice-test arena was used to assess irritancy of test solutions to two common household insect pests, the German cockroach (Blattella germanica) and the house fly (Musca domestica). Catnip essential oil obtained by steam distillation of catnip obtained from the same source as described in the above examples, and the two major components of its essential oil, Z,E-nepetalactone and E,Z-nepetalactone (isolated from the essential oil by preparative TLC), were evaluated for behavioral effects of contact irritancy to the German cockroach. The TLC was performed as described in McElvain, S. M. et al., J. Am. Chem. Soc., 1941, 63, 1558-1563. Catnip essential oil and its major constituent Z,E-nepetalactone were tested against the house fly. N,N-diethyl-m-toluamide (DEET) (Aldrich, St. Louis, Mo.) served as a positive control for the choice-test arena assay and as a point of comparison for measuring insect behavioral effects that result from current commercial insect repellents. Test solutions ranging from 10% to 0.1% (vol/vol) active ingredient (a.i.) were made up in acetone and then delivered on to a filter paper for solvent evaporation. […] Choice-test are for German cockroaches and house flies were constructed from plastic Petri dishes. One-half of a 12.5-cm dia. filter paper was treated with 1 ml test solution, and the other was treated with 1 ml of only solvent (control). Both halves of the filter paper were placed in the choice-test arena. Position of the treated filter paper was randomized using a random-number table.
(§2) Individual German cockroaches or house flies were placed in each choice-test arena through a centered hole in the lid of the Petri dish and evaluated for a 300-second period. The amount of time the insect spent on the treated and untreated filter papers were recorded and used to calculate a percentage repellency value: Percentage Repellency=((Time on Untreated-Time on Treated)/300)×100
(§3) Ten replicates of each treatment solution were tested for both German cockroaches and house flies. Details of this assay design and some results have previously been described.

[4] = system: house fly, Musca domestica; test: Choice-test arena bioassay (contact irritancy), house fly; assay type: in vivo; details: for Percentage Repellency: 300-second period
Description: as §1, §2, §3

[5] = 0.1% test solution vs solvent-treated half, male
[6] = 0.5% test solution vs solvent-treated half, male
[7] = 1% test solution vs solvent-treated half, male
[8] = 5% test solution vs solvent-treated half, male
[9] = 10% test solution vs solvent-treated half, male

C=CC1(C)CCC(C(C)(C)O)CC1C(=C)C (stereo not shown) [Elemol]
Mean Treated ([1]; amount used 1% solution): 107 s | Mean Untreated ([1]; amount used 1% solution): 196 s | % repellency ([1]; amount used 1% solution): 30%

CCN(CC)C(=O)c1cccc(C)c1 [DEET, N,N-diethyl-3-methylbenzamide, reference compound]
Mean Treated [1, 5]: 129 s | Mean Untreated [1, 5]: 175 s | Mean Treated [1, 6]: 128 s | Mean Untreated [1, 6]: 175 s | Mean Treated [1, 7]: 120 s | Mean Untreated [1, 7]: 181 s | Mean Treated [1, 8]: 113 s | Mean Untreated [1, 8]: 190 s | Mean Treated [1, 9]: 63 s and 63.4 s | Mean Untreated [1, 9]: 238 s | Mean seconds on treated side ± SEM ([1]; Non-antennectomized male cockroaches, 1600 μg/cm^2): 63.4 ± 15.9 s | % repellency ([1]; dose 16 μg/cm^2): 15% | Mean seconds on treated side ± SEM ([1]; dose 16 μg/cm^2, male B. germanica, in 300 seconds): 129 ± 9.0 a seconds | % repellency ([1]; dose 80 μg/cm^2): 16% | Mean seconds on treated side ± SEM ([1]; dose 80 μg/cm^2, male B. germanica, in 300 seconds): 128 ± 9.7 a seconds | % repellency ([1]; dose 160 μg/cm^2): 20% | Mean seconds on treated side ± SEM ([1]; dose 160 μg/cm^2, male B. germanica, in 300 seconds): 120 ± 13.8 a seconds | % repellency ([1]; dose 800 μg/cm^2): 26% | Mean seconds on treated side ± SEM ([1]; dose 800 μg/cm^2, male B. germanica, in 300 seconds): 113 ± 14.5 a seconds | % repellency ([1]; dose 1600 μg/cm^2): 58% | Mean seconds on treated side ± SEM ([1]; dose 1600 μg/cm^2, male B. germanica, in 300 seconds): 63.4 ± 15.9 b seconds | Mean seconds on treated side ± SEM [2]: 148 ± 17.1 s | Mean seconds on untreated side [2]: 154 ± 17.2 s | treated, mean of 10 trials (female German cockroach): 144 | untreated, mean of 10 trials (female German cockroach): 156.9 | treated (time on treated side), single trials 1-10 (female German cockroach; 300-second test as Example 1, in s (unit assumed)): 99 and 166 and 116 and 181 and 157 and 146 and 137 and 150 | Percentage Repellency ± SEM ([3]; application rate 80 μg/cm^2): 15.5 ± 5.4a % | Percentage Repellency ± SEM ([3]; application rate 160 μg/cm^2): 20.4 ± 9.2a % | Percentage Repellency ± SEM ([3]; application rate 800 μg/cm^2): 25.8 ± 9.5a % | Percentage Repellency ± SEM ([3]; application rate 1.60 mg/cm^2): 58.3 ± 10.5b % | higher percentage repellency values (text summary of Table 15) ([4]; across application rates tested): 39% | Percentage Repellency ([4]; application rate 80 μg/cm^2): 38.7% | Percentage Repellency ([4]; application rate 160 μg/cm^2): 19.3% | Percentage Repellency ([4]; application rate 800 μg/cm^2): 20.7%
